{
  "source": "paper PMC6130495",
  "about": "“Effect of piplartine and cinnamides on Leishmania amazonensis, Plasmodium falciparum and on peritoneal cells of Swiss mice” (Pharmaceutical Biology, 2017)",
  "key": {"[1]": {"tested_on": "L. amazonensis promastigotes", "experiment": "Inhibition of L. amazonensis promastigotes, MTT method", "assay_type": "cell-based, Leishmania amazonensis", "method": "The MHOM/BR/pH8 strain was transferred to the NNN solid medium (Novy-MacNeal-Nicolle) for 48 h at 24 °C.\n(Sigma-Aldrich) method was used. This method evaluates the cell viability by the activity of mitochondrial succinate dehydrogenase enzyme that cleaves the tetrazolium salt to form formazan crystals in living cells. For the cultures of P. falciparum-infected erythrocytes, the IC50 were determined by optical microscopy.\nThen, 10 μL of MTT solution (5 mg/mL) was added to all wells and the cultures were re-incubated at the same condition for 4 h, but protected from light. […] The results were expressed in percentage."}, "[2]": {"tested_on": "P. falciparum-infected erythrocytes", "experiment": "Growth inhibition of P. falciparum-infected erythrocytes, optical microscopy", "assay_type": "cell-based", "conditions": "Plasmodium falciparum, Erythrocyte; for inhibition at 0.008 µg/mL: positive control, 8 ng/mL", "method": "The Pf/Unb169 strain, kept under cryopreservation was culture together with O^+ erythrocytes in RPMI 1640 medium, supplemented with hypoxanthine (0.25 mg/dL), 10% of human serum, and gentamicin ([…]), at 37 °C in air with 5% CO2. For the assays, a suspension with 3% of hematocrit and 0.6% of infected erythrocytes was prepared.\nTo assess inhibitory or cytotoxic concentrations of the compounds (1–5), able to eliminate 50% of the cells in the cultures of L. amazonensis (IC50) and cytotoxic concentrations (CC50) in the cultures of peritoneal cell, MTT [3-(4,5-dimethylthiazol-2-yl)-2,5-diphenyltetrazolium bromide] (Sigma-Aldrich) method was used. This method evaluates the cell viability by the activity of mitochondrial succinate dehydrogenase enzyme that cleaves the tetrazolium salt to form formazan crystals in living cells. For the cultures of P. falciparum-infected erythrocytes, the IC50 were determined by optical microscopy. The concentrations for the compounds tested were calculated in μg/mL (ranging from 0 to 256 μg/mL), as well their equivalent in […], being: 1 (0 to 806.7 μM), 2 (0 to 833.0 μM), 3 (0 to 923.0 μM), 4 (0 to 832.8 μM) and 5 (0 to 923.1 μM).\nA suspension of O^+ human erythrocytes (3% hematocrit and 0.6% of infected erythrocytes) was incubated at 37 °C with 5% of CO2 in air, for 48 or 72 h in RPMI 1640 medium supplemented with 10% human serum, in triplicate, in 96 wells plate, with different concentrations (0 to 256 μg/mL) of compounds (1–5). As positive control, infected erythrocytes were incubated with 8 ng/mL of artesunate (Artemix Ativus, São Paulo, Brazil) and, as negative control, they were incubated exclusively with the diluent (complete RPMI 1640 medium); 50% of the medium, for the cultures incubated for 72 h, was exchanged after 48 h, at the same concentrations as before. After that, 150 μL of the supernatant of the cultures were discarded, and a drop of suspension distended onto slides for microscopy, dried and fixed with methanol, was stained for 15 min with 10% of Giemsa solution (PBS, pH 6.9). The erythrocytes (1000 cells/slide) were analyzed by a single observer with optical microscopy and the results were expressed in percentage of infected cells.\nThe SI for each amide (1–5) was obtained by dividing the concentration able to eliminate 50% of peritoneal cells (CC50) by the concentration able to inhibit the growth of 50% of the protozoa (IC50). Compounds which presented SI greater than 10 were considered potentially microbicides and safe for the host cells (Bézivin et al. [2003])."}, "[3]": {"experiment": "Cytotoxicity to peritoneal cells, MTT method", "assay_type": "cell-based, Swiss mice", "conditions": "both sexes, Swiss, mouse, peritoneal cells (>99% macrophages), 6 h incubation, read-out: Estimated CC50 peritoneal cell 6 h", "method": "To obtain peritoneal cells, six adult Swiss mice (male and female), weighing 30 ± 6 g, were used. During the experiments, the animals were kept in the Faculty of Medicine, University of Brasilia under ambient temperature, light/dark cycle of 12 h, fed with balanced diet and water ad libitum. The study was approved by the Ethics Committee on Animal Use (CEUA) of the Institute of Biological Sciences at University of Brasilia (Doc. no. 22199/2014).\nTo assess inhibitory or cytotoxic concentrations of the compounds (1–5), able to eliminate 50% of the cells in the cultures of L. amazonensis (IC50) and cytotoxic concentrations (CC50) in the cultures of peritoneal cell, MTT [3-(4,5-dimethylthiazol-2-yl)-2,5-diphenyltetrazolium bromide] (Sigma-Aldrich) method was used. This method evaluates the cell viability by the activity of mitochondrial succinate dehydrogenase enzyme that cleaves the tetrazolium salt to form formazan crystals in living cells. […]\nInitially, cells obtained by washing the peritoneal cavity of the mice with 10 mL of PBS pH 7.2 at 4 °C, centrifuged at 400 g for 10 min and suspended with 1 mL of RPMI 1640 medium were quantified at Neubauer chamber with 0.05% of nigrosin solution. […] The formazan crystals were solubilized with 50 μL of DMSO/well and the absorbance obtained in spectrophotometer (Spectra Max® Plus 384) with 550 nm. […]"}},
  "note": "Values joined by “and” are separate entries in the source; they are usually repeats but may differ in a detail not shown here. Identical values can stand only once. Like-named read-outs stand apart in the source and are kept apart here.",
  "data": [
    {"smiles": "COc1cc(C=CC(=O)N2CCCCC2)cc(OC)c1OC", "note": "[piperidine analogue]", "values": [
      {"measurement": "IC50", "setting": "[1]; previous screening, data not shown, read-out: IC50 on growth of L. amazonensis promastigotes", "result": 2.3, "unit": "mM"}
    ]},
    {"smiles": "COc1cc(/C=C/C(=O)N2CCC=CC2=O)cc(OC)c1OC", "note": "[Compound 1, 1-[(E)-3-(3,4,5-trimethoxyphenyl)prop-2-enoyl]-2,3-dihydropyridin-6-one]", "values": [
      {"measurement": "Selectivity Index (SI) = CC50/IC50, L. amazonensis", "setting": "[1]; CC50 peritoneal cells 6 h / IC50 L. amazonensis 6 h", "result": 1.3},
      {"measurement": "Inhibitory activity relative to piperidine analogue (fold)", "setting": "[1]; L. amazonensis promastigotes, fold superior to piperidine analogue (IC50 2297.9 μM)", "result": 4.07, "unit": "fold"},
      {"measurement": "IC50", "setting": "[1]; Leishmania amazonensis, 6 h, read-out: Estimated IC50 L. amazonensis 6 h", "result": "564 µM and 179 µg/mL"},
      {"measurement": "IC50", "setting": "[2]; 48 h, read-out: Estimated IC50 P. falciparum 48 h", "result": "19.5 µM and 6.2 µg/mL"},
      {"measurement": "inhibition at 64 µg/mL", "setting": "[2]; 48 h, read-out: Inhibition of growth of parasites (P. falciparum)", "result": 100, "unit": "%"},
      {"measurement": "IC50", "setting": "[2]; 72 h, read-out: Estimated IC50 P. falciparum 72 h", "result": "10.1 µM and 3.2 µg/mL"},
      {"measurement": "inhibition at 8 µg/mL", "setting": "[2]; 72 h, read-out: Inhibition of growth of parasites (P. falciparum)", "result": 100, "unit": "%"},
      {"measurement": "CC50 at 6 h", "setting": "[3]", "result": "731 µM and 232 µg/mL"}
    ]},
    {"smiles": "CNC[C@H](O)[C@@H](O)[C@H](O)[C@H](O)CO.[O]=[Sb](=[O])[OH]", "note": "[N-metilglucamine, antimoniate of N-metilglucamine, reference compound]", "values": [
      {"measurement": "Inhibition of the parasites (L. amazonensis)", "setting": "[1]; positive control, 4 μg/mL, 6 h incubation", "result": 55.4, "unit": "%"}
    ]},
    {"smiles": "C[C@H]1[C@H](OC(=O)CCC(=O)O)O[C@@H]2O[C@@]3(C)CC[C@H]4[C@H](C)CC[C@@H]1[C@@]24OO3", "note": "[artesunate, reference compound]", "values": [
      {"measurement": "inhibition at 0.008 µg/mL", "setting": "[2]; 48 h incubation, read-out: Inhibition of the parasites (P. falciparum) 48 h", "result": 79.8, "unit": "%"},
      {"measurement": "inhibition at 0.008 µg/mL", "setting": "[2]; 72 h incubation, read-out: Inhibition of the parasites (P. falciparum) 72 h", "result": 90, "unit": "%"}
    ]}
  ]
}
